Results as given in patent US8431563B2 (priority 2010, dated 2013).
Like-named read-outs stand apart in the source and are kept apart here. Values belong to the compound of their own block, whether it stands above or below them.

Key:
[1] = target: T1, interaction between glucokinase (GK) and glucokinase regulatory protein (GKRP) (Homo sapiens, UniProt Q14397); experiment: biochemical; type: binding; details: avi-tagged GKRP, GK-fluorescein, AlphaScreen beads; read-out: GK-GKRP IC50 (Binding)
T1 sequence (Q14397 1-625): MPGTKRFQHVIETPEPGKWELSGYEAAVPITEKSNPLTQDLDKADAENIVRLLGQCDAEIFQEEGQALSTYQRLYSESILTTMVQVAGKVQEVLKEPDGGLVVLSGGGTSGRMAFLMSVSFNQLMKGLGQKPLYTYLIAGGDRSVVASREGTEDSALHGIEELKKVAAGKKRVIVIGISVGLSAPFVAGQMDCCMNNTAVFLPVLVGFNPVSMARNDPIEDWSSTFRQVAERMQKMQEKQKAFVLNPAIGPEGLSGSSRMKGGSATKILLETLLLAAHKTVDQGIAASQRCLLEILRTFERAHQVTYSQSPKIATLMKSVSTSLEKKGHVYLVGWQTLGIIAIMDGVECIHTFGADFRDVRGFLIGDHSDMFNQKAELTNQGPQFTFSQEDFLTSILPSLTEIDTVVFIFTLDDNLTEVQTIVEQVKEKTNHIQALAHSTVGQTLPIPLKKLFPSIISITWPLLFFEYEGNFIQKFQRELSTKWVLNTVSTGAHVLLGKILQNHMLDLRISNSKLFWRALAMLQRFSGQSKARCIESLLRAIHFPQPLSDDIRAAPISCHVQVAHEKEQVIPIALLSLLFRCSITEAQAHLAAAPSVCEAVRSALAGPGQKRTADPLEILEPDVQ
Procedure, shortened: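 Measures direct GK–GKRP binding in 20 mM Tris pH 7.5 containing 1 μM sorbitol-6-phosphate, 0.05% BSA and 1 mM DTT. Compound and avi-tagged GKRP sit 20 min at room temperature before GK-fluorescein addition (6 nM in the added buffer); read after 2 h dark incubation at room temperature.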

[2] = target: T2, GKRP (Glucokinase Regulatory Protein) with human His-hepatic GK (Homo sapiens, UniProt Q14397); experiment: biochemical; details: 13C-glucose-6-phosphate formation, 280 nM GKRP (10×), 30 nM GK (5×)
T2 sequence (Q14397 1-625): T1 sequence (Q14397 1-625)
Procedure, shortened: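 Product formation, 13C-glucose-6-phosphate from 13C-glucose, was measured directly by LC MS/MS after acetonitrile quench. The GK reaction ran 30 min at room temperature in Tris pH 7.5 buffer with 4 mM MgCl2 and 6% DMSO. The 5× enzyme stock was 30 nM His-tagged human hepatic glucokinase.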

[3] = read-out: GK-GKRP EC50 (LC MS/MS-2)

SMILES: Nc1ccc(S(=O)(=O)N2CCN(c3ncc(C(O)(C(F)(F)F)C(F)(F)F)cn3)[C@@H](CC3CCOCC3)C2)cn1 [Example 130, 2-(2-((2S)-4-((6-amino-3-pyridinyl)sulfonyl)-2-(tetrahydro-2H-pyran-4-ylmethyl)-1-piperazinyl)-5-pyrimidinyl)-1,1,1,3,3,3-hexafluoro-2-propanol]
- IC50 [1]: 0.062 µM
- EC50 [2, 3]: 0.134 µM

SMILES: Nc1ccc(S(=O)(=O)N2CCN(c3ncc(C(O)(C(F)(F)F)C(F)(F)F)cn3)[C@@H](CC3CCOCC3)C2)s1 [Example 133, 2-(2-((2S)-4-((5-amino-2-thiophenyl)sulfonyl)-2-(tetrahydro-2H-pyran-4-ylmethyl)-1-piperazinyl)-5-pyrimidinyl)-1,1,1,3,3,3-hexafluoro-2-propanol]
- IC50 [1]: 0.047 µM
- EC50 ([2]; GK-GKRP EC50 (LC MS/MS-2)): 0.059 µM

SMILES: O=S(=O)(c1cccs1)N1CCN(c2ncc(C(O)(C(F)(F)F)C(F)(F)F)cn2)[C@@H](CC2CCOCC2)C1 [Example 134, 1,1,1,3,3,3-hexafluoro-2-(2-((2S)-2-(tetrahydro-2H-pyran-4-ylmethyl)-4-(2-thiophenylsulfonyl)-1-piperazinyl)-5-pyrimidinyl)-2-propanol]
- IC50 [1]: 0.122 µM
- EC50 [2, 3]: 0.079 µM

SMILES: C[C@H]1CN(S(=O)(=O)c2nccs2)CCN1c1ncc(C(O)(C(F)(F)F)C(F)(F)F)cn1 [Example 146, 1,1,1,3,3,3-hexafluoro-2-(2-((2S)-2-methyl-4-(1,3-thiazol-2-ylsulfonyl)-1-piperazinyl)-5-pyrimidinyl)-2-propanol]
- IC50 [1]: 0.63 µM
- EC50 [2, 3]: 0.867 µM

SMILES: C[C@H]1CN(S(=O)(=O)c2ccc(N)s2)CCN1c1ccc(C(O)(C(F)(F)F)C(F)(F)F)cc1 [Example 149, 2-(4-((2S)-4-((5-amino-2-thiophenyl)sulfonyl)-2-methyl-1-piperazinyl)phenyl)-1,1,1,3,3,3-hexafluoro-2-propanol]
- IC50 [1]: 0.45 µM
- EC50 [2, 3]: 0.109 µM

SMILES: O=S(=O)(c1cccs1)N1CCN(c2ccc(C(O)(C(F)(F)F)C(F)(F)F)cc2C#CCCO)CC1 [Example 150, 4-(2-(4-(2-thiophenylsulfonyl)-1-piperazinyl)-5-(2,2,2-trifluoro-1-hydroxy-1-(trifluoromethyl)ethyl)phenyl)-3-butyn-1-ol]
- IC50 [1]: 0.656 µM
- EC50 [2, 3]: 0.895 µM

SMILES: O=S(=O)(c1cccs1)N1CCN(c2ccc(C(O)(C(F)(F)F)C(F)(F)F)cc2C#CCO)CC1 [Example 152, 3-(2-(4-(2-thiophenylsulfonyl)-1-piperazinyl)-5-(2,2,2-trifluoro-1-hydroxy-1-(trifluoromethyl)ethyl)phenyl)-2-propyn-1-ol]
- IC50 [1]: 0.712 µM
- EC50 [2, 3]: 0.557 µM

SMILES: COCC#Cc1cc(C(O)(C(F)(F)F)C(F)(F)F)ccc1N1CCN(S(=O)(=O)c2cccs2)CC1 [Example 153, 1,1,1,3,3,3-hexafluoro-2-(3-(3-methoxyprop-1-YNYL)-4-(4-(thiophen-2-ylsulfonyl)piperazin-1-yl)phenyl)propan-2-ol]
- IC50 [1]: 0.363 µM
- EC50 [2, 3]: 0.675 µM

SMILES: CS(=O)(=O)NCC#Cc1cc(C(O)(C(F)(F)F)C(F)(F)F)ccc1N1CCN(S(=O)(=O)c2cccs2)CC1 [Example 160, N-(3-(2-(4-(2-thiophenylsulfonyl)-1-piperazinyl)-5-(2,2,2-trifluoro-1-hydroxy-1-(trifluoromethyl)ethyl)phenyl)-2-propyn-1-yl)methanesulfonamide]
- IC50 [1]: 0.783 µM
- EC50 [2, 3]: 0.412 µM

SMILES: C[C@H]1CN(S(=O)(=O)c2ccccc2N)CCN1c1ncc(C(O)(C(F)(F)F)C(F)(F)F)cn1 [Example 167, (S)-2-(2-(4-(2-aminophenylsulfonyl)-2-methylpiperazin-1-yl)pyrimidin-5-yl)-1,1,1,3,3,3-hexafluoro-2-propanol]
- IC50 [1]: 0.508 µM
- EC50 [2, 3]: 0.516 µM

SMILES: C[C@H]1CN(S(=O)(=O)c2ccccc2N)CCN1c1ccc(C(O)(C(F)(F)F)C(F)(F)F)cc1 [Example 168, 2-(4-((2S)-4-((2-aminophenyl)sulfonyl)-2-methyl-1-piperazinyl)phenyl)-1,1,1,3,3,3-hexafluoro-2-propanol]
- IC50 [1]: 0.66 µM
- EC50 [2, 3]: 0.533 µM

- IC50 [1]: 0.068 µM
- EC50 [2, 3]: 0.092 µM
SMILES: CC(O)(c1ccc(N2CCN(S(=O)(=O)c3cccs3)C[C@@H]2CN(C2CCC2)S(C)(=O)=O)cc1)C(F)(F)F (stereo partly drawn) [Example 212, N-cyclobutyl-N-(((2R)-4-(2-thiophenylsulfonyl)-1-(4-(2,2,2-trifluoro-1-hydroxy-1-methylethyl)phenyl)-2-piperazinyl)methyl) methanesulfonamide]

SMILES: CC1(C)C(=O)NCCN1C[C@H]1CN(S(=O)(=O)c2cccs2)CCN1c1ncc(C(O)(C(F)(F)F)C(F)(F)F)cn1 [Example 226, 3,3-dimethyl-4-(((2S)-4-(2-thiophenylsulfonyl)-1-(5-(2,2,2-trifluoro-1-hydroxy-1-(trifluoromethyl)ethyl)-2-pyrimidinyl)-2-piperazinyl)methyl)-2-piperazinone]
- IC50 [1]: 0.006 µM
- EC50 [2, 3]: 0.014 µM

SMILES: CC1(C)C(=O)NCCN1C[C@H]1CN(S(=O)(=O)c2ccc(N)s2)CCN1c1ncc(C(O)(C(F)(F)F)C(F)(F)F)cn1 [Example 227, (S)-4-((4-((5-aminothiophen-2-yl)sulfonyl)-1-(5-(1,1,1,3,3,3-hexafluoro-2-hydroxypropan-2-yl)pyrimidin-2-yl)piperazin-2-yl)methyl)-3,3-dimethylpiperazin-2-one]
- IC50 [1]: 0.002 µM
- EC50 [2, 3]: 0.021 µM

SMILES: CC(C)CN(C[C@H]1CN(S(=O)(=O)c2ccc(N)s2)CCN1c1ncc(C(O)(C(F)(F)F)C(F)(F)F)cn1)S(C)(=O)=O [Example 229, N-(((2S)-4-((5-amino-2-thiophenyl)sulfonyl)-1-(5-(2,2,2-trifluoro-1-hydroxy-1-(trifluoromethyl)ethyl)-2-pyrimidinyl)-2-piperazinyl)methyl)-N-(2-methylpropyl)methanesulfonamide]
- IC50 [1]: 0.001 µM
- EC50 [2, 3]: 0.013 µM

SMILES: CC(C)CN(C[C@H]1CN(S(=O)(=O)c2cccnc2N)CCN1c1ncc(C(O)(C(F)(F)F)C(F)(F)F)cn1)S(C)(=O)=O [Example 230 (2-amino-3-pyridinyl), N-(((2S)-4-((2-amino-3-pyridinyl)sulfonyl)-1-(5-(2,2,2-trifluoro-1-hydroxy-1-(trifluoromethyl)ethyl)-2-pyrimidinyl)-2-piperazinyl)methyl)-N-(2-methylpropyl)methanesulfonamide]
- IC50 [1]: 0.064 µM
- EC50 [2, 3]: 0.095 µM

SMILES: CC(C)CN(C[C@H]1CN(S(=O)(=O)c2ccc(N)nc2)CCN1c1ncc(C(O)(C(F)(F)F)C(F)(F)F)cn1)S(C)(=O)=O [Example 230 (6-amino-3-pyridinyl), N-(((2S)-4-((6-amino-3-pyridinyl)sulfonyl)-1-(5-(2,2,2-trifluoro-1-hydroxy-1-(trifluoromethyl)ethyl)-2-pyrimidinyl)-2-piperazinyl)methyl)-N-(2-methylpropyl)methanesulfonamide]
- IC50 [1]: 0.001 µM
- EC50 [2, 3]: 0.011 µM

SMILES: CC(C)N(C[C@H]1CN(S(=O)(=O)c2ccc(N)s2)CCN1c1ncc(C(O)(C(F)(F)F)C(F)(F)F)cn1)S(C)(=O)=O [Example 231, N-(((2R)-4-((5-amino-2-thiophenyl)sulfonyl)-1-(5-(2,2,2-trifluoro-1-hydroxy-1-(trifluoromethyl)ethyl)-2-pyrimidinyl)-2-piperazinyl)methyl)-N-(1-methylethyl)methanesulfonamide]
- IC50 [1]: 0.007 µM
- EC50 [2, 3]: 0.02 µM

SMILES: CC(C)N(C[C@H]1CN(S(=O)(=O)c2ccc(N)nc2)CCN1c1ncc(C(O)(C(F)(F)F)C(F)(F)F)cn1)S(C)(=O)=O [Example 232, N-(((2R)-4-((6-amino-3-pyridinyl)sulfonyl)-1-(5-(2,2,2-trifluoro-1-hydroxy-1-(trifluoromethyl)ethyl)-2-pyrimidinyl)-2-piperazinyl)methyl)-N-(1-methylethyl)methanesulfonamide]
- IC50 [1]: 0.035 µM
- EC50 [2, 3]: 0.063 µM

SMILES: CS(=O)(=O)N(C[C@H]1CN(S(=O)(=O)c2ccc(N)s2)CCN1c1ncc(C(O)(C(F)(F)F)C(F)(F)F)cn1)c1ccccc1 [Example 233, N-(((2R)-4-((5-amino-2-thiophenyl)sulfonyl)-1-(5-(2,2,2-trifluoro-1-hydroxy-1-(trifluoromethyl)ethyl)-2-pyrimidinyl)-2-piperazinyl)methyl)-N-phenylmethanesulfonamide]
- IC50 [1]: < 0.001 µM
- EC50 [2, 3]: 0.008 µM
